Experimental data from the kinase profiling compilation of Christmann-Franck et al. (2016).

Columns and labels:
Test in all cases: radiometric filter-binding kinase assay, Kinase HotSpot
Conditions in all cases: compound 0.5 µM; ATP 10 µM
[1] = biological target: TSSK1B (human) (UniProt Q9BXA7)
[2] = biological target: PDPK1 (human) (UniProt O15530)
[3] = biological target: CSNK1E (human) (UniProt P49674)
[4] = biological target: MUSK (human) (UniProt O15146)
[5] = biological target: GRK5 (human) (UniProt P34947)
[6] = biological target: STK4 (human) (UniProt Q13043)
[7] = biological target: NUAK1 (human) (UniProt O60285)
[8] = biological target: PAK6 (human) (UniProt Q9NQU5)
[9] = biological target: RPS6KA4 KD2 (human) (UniProt O75676)
[10] = biological target: TXK (human) (UniProt P42681)
[11] = biological target: JAK2 JH1 JH2 (human) (UniProt O60674)
[12] = biological target: BRSK1 (human) (UniProt Q8TDC3)
[13] = biological target: RAF1 (human) (UniProt P04049)
[14] = biological target: NEK2 (human) (UniProt P51955)
Sequence of NEK2 (human) (P51955 whole entry, looked up): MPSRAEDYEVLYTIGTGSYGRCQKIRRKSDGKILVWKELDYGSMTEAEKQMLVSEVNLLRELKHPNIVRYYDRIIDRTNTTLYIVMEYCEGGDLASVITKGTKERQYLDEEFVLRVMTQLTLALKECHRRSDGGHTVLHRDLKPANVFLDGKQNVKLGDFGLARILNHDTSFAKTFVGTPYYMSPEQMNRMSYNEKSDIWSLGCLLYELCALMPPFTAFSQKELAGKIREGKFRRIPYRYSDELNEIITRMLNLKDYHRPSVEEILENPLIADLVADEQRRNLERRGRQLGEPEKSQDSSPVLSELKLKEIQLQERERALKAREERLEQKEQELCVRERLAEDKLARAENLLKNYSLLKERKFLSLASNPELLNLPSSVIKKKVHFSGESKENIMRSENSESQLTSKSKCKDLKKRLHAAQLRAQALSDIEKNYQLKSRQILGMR

[15] = biological target: RPS6KA2 KD1 KD2 (human) (UniProt Q15349)
[16] = biological target: SYK (human) (UniProt P43405)
[17] = biological target: MAP3K8 (human) (UniProt P41279)
[18] = biological target: CAMK2A (human) (UniProt Q9UQM7)
Sequence of CAMK2A (human) (Q9UQM7 whole entry, looked up): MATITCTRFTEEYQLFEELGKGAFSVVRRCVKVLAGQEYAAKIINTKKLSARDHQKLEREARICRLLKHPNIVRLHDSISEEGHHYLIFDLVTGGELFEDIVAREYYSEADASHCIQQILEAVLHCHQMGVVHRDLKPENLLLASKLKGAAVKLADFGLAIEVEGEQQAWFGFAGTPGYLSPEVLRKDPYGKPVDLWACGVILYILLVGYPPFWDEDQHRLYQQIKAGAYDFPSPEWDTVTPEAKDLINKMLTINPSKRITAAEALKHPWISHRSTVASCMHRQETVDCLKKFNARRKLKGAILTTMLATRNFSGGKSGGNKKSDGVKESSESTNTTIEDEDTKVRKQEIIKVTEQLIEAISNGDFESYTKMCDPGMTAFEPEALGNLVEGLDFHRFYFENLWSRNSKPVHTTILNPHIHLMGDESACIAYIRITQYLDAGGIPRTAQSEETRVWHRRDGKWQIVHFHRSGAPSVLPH

[19] = biological target: PRKCB2 (human) (UniProt P05771)
Sequence of PRKCB2 (human) (P05771 whole entry, looked up): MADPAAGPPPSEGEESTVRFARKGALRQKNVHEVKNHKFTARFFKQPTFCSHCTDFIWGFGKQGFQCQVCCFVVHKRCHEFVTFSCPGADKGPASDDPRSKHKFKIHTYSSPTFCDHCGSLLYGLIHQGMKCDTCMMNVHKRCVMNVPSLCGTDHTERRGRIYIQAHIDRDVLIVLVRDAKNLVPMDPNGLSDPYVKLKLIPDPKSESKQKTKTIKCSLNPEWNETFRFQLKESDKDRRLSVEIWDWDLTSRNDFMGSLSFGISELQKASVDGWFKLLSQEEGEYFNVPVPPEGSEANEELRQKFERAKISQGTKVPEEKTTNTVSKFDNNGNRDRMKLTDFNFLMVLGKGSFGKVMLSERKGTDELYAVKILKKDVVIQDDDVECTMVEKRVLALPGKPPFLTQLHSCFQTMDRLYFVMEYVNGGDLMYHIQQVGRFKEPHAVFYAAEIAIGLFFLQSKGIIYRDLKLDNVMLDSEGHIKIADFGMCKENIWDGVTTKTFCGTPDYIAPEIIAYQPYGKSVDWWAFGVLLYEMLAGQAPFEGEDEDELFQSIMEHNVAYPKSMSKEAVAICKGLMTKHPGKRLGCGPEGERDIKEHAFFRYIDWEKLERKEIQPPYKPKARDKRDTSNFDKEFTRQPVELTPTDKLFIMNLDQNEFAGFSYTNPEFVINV

[20] = biological target: CSNK1A1 (human) (UniProt P48729)
[21] = biological target: PIM1 (human) (UniProt P11309)
[22] = biological target: MAPK1 (human) (UniProt P28482)
[23] = biological target: TAOK3 (human) (UniProt Q9H2K8)
[24] = biological target: PLK3 (human) (UniProt Q9H4B4)
Sequence of PLK3 (human) (Q9H4B4 whole entry, looked up): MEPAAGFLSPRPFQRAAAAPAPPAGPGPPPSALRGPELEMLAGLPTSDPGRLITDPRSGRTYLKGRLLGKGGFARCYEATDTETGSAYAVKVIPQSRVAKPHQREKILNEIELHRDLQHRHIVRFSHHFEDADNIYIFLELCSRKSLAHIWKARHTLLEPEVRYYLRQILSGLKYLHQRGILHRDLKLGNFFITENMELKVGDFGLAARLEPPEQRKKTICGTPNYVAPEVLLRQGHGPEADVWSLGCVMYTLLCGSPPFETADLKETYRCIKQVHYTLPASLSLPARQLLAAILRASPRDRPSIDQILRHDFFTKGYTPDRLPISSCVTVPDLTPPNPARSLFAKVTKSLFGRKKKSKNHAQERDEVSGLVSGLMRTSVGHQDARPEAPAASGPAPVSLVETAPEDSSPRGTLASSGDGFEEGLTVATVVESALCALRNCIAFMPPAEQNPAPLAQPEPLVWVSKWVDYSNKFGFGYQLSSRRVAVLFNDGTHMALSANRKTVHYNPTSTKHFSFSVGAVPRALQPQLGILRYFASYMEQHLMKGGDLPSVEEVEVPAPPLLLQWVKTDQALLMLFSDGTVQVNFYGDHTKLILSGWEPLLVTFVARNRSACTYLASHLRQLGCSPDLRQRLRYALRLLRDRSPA

[25] = biological target: ERBB2 (human) (UniProt P04626)
[26] = biological target: RPS6KB1 (human) (UniProt P23443)
[27] = biological target: DYRK1B (human) (UniProt Q9Y463)
[28] = biological target: FLT1 (human) (UniProt P17948)
[29] = biological target: MST4 (human) (UniProt Q9P289)
Sequence of MST4 (human) (Q9P289 whole entry, looked up): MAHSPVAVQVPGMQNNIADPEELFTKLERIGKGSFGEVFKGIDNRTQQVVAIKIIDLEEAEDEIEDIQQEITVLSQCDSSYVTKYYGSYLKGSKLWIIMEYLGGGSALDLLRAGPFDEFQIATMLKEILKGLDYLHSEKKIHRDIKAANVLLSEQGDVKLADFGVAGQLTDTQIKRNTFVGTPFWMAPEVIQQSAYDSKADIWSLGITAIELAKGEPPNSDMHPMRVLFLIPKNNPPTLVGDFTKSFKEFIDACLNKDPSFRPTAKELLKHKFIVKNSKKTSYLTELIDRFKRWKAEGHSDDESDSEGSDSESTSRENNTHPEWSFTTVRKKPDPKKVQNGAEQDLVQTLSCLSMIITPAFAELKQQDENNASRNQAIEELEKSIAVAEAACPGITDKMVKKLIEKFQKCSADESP

[30] = biological target: DMPK (human) (UniProt Q09013)
[31] = biological target: KDR (human) (UniProt P35968)
[32] = biological target: ITK (human) (UniProt Q08881)
[33] = biological target: PTK6 (human) (UniProt Q13882)
Sequence of PTK6 (human) (Q13882 whole entry, looked up): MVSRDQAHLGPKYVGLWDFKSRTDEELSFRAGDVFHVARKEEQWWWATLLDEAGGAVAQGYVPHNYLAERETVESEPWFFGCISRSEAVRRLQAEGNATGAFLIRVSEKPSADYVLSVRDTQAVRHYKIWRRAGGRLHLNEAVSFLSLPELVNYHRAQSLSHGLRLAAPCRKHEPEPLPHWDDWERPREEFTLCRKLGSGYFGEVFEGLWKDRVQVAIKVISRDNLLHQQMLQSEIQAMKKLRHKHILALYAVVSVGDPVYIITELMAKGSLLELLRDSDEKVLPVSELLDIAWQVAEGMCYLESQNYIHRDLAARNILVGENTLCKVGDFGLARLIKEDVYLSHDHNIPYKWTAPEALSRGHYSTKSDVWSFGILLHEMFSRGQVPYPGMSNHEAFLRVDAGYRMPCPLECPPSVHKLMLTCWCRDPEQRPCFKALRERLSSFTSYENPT

[34] = biological target: CAMK2B (human) (UniProt Q13554)
[35] = biological target: MAP4K5 (human) (UniProt Q9Y4K4)
[36] = biological target: OXSR1 (human) (UniProt O95747)
[37] = biological target: RPS6KA1 KD1 KD2 (human) (UniProt Q15418)
[38] = biological target: CDK3 CCNE1 (human) (UniProt Q00526+P24864)
[39] = biological target: SGK2 (human) (UniProt Q9HBY8)
[40] = biological target: PRKCZ (human) (UniProt Q05513)
[41] = biological target: STK33 (human) (UniProt Q9BYT3)
[42] = biological target: CLK4 (human) (UniProt Q9HAZ1)

Sequence of TSSK1B (human) (Q9BXA7 whole entry, looked up): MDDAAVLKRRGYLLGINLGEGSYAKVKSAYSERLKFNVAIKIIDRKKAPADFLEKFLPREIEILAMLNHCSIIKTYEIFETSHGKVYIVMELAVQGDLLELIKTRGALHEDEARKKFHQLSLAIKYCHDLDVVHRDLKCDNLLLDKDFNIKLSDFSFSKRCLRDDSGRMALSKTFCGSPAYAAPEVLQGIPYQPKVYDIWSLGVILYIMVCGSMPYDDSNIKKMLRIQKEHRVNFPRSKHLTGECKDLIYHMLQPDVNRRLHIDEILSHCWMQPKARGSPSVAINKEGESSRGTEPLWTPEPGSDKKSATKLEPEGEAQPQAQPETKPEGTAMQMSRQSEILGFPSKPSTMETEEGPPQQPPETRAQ
Sequence of MUSK (human) (O15146 whole entry, looked up): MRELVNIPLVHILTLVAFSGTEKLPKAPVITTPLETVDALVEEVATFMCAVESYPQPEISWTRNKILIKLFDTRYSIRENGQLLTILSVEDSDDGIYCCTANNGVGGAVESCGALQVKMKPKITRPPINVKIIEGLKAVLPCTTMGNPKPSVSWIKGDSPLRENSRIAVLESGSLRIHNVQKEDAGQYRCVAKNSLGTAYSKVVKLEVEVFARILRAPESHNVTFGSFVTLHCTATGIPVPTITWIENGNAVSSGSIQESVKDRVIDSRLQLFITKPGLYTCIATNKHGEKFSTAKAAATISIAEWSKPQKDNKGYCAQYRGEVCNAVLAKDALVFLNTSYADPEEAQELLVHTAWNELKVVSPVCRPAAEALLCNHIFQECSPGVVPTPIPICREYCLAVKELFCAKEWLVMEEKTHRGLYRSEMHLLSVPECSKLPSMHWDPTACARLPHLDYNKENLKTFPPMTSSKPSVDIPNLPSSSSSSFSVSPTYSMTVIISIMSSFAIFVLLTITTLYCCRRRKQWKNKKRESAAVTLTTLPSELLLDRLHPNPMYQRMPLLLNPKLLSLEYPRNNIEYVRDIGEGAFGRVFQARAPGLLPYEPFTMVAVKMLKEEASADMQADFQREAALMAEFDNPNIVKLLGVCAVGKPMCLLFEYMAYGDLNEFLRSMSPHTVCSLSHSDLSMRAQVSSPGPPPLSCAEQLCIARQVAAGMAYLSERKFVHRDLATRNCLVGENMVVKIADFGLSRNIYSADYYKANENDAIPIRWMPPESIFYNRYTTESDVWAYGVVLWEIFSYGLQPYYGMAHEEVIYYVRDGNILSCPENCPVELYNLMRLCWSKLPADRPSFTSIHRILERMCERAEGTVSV
Sequence of PDPK1 (human) (O15530 whole entry, looked up): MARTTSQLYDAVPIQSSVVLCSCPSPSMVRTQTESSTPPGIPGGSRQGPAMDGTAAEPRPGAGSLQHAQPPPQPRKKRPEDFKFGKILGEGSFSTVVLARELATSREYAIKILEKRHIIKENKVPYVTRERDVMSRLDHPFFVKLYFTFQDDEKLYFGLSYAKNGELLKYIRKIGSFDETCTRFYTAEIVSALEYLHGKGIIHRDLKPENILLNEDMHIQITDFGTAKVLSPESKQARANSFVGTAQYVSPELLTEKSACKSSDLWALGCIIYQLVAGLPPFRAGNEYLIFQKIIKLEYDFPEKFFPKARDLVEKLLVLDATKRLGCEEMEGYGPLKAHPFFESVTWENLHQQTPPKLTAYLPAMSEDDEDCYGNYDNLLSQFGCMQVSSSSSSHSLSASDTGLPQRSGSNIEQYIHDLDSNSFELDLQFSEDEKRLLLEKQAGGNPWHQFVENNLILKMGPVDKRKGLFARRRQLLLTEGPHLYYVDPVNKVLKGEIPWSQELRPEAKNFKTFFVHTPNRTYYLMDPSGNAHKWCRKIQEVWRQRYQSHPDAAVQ

## Cc1cncc2cccc(S(=O)(=O)N3CCCN(C(=O)CN)C[C@H]3C)c12
[1]
  residual activity: 103%
[2]
  residual activity: 97.8%
[3]
  residual activity: 100%
[4]
  residual activity: 88.7%
[5]
  residual activity: 97.1%
[6]
  residual activity: 95.4%
[7]
  residual activity: 91.1%
[8]
  residual activity: 108%
[9]
  residual activity: 82.3%
[10]
  residual activity: 103%
[11]
  residual activity: 93.9%
[12]
  residual activity: 94.2%
[13]
  residual activity: 95.1%
[14]
  residual activity: 105%
[15]
  residual activity: 89.2%
[16]
  residual activity: 100%
[17]
  residual activity: 99.9%
[18]
  residual activity: 93.2%
[19]
  residual activity: 91.3%
[20]
  residual activity: 98.9%
[21]
  residual activity: 105%
[22]
  residual activity: 103%
[23]
  residual activity: 96.2%
[24]
  residual activity: 98.4%
[25]
  residual activity: 99.7%
[26]
  residual activity: 93.3%
[27]
  residual activity: 101%
[28]
  residual activity: 96.9%
[29]
  residual activity: 107%
[30]
  residual activity: 105%
[31]
  residual activity: 99%
[32]
  residual activity: 97.2%
[33]
  residual activity: 87.8%
[34]
  residual activity: 92.4%
[35]
  residual activity: 103%
[36]
  residual activity: 99.4%
[37]
  residual activity: 90.4%
[38]
  residual activity: 98%
[39]
  residual activity: 102%
[40]
  residual activity: 91.2%
[41]
  residual activity: 100%
[42]
  residual activity: 105%

## O=C1C(Cl)=C(N2C(=O)CCC2=O)C(=O)c2ccccc21
[1]
  residual activity: 104%
[2]
  residual activity: 100%
[3]
  residual activity: 102%
[4]
  residual activity: 104%
[5]
  residual activity: 91.5%
[6]
  residual activity: 89.1%
[7]
  residual activity: 105%
[8]
  residual activity: 89.6%
[9]
  residual activity: 115%
[10]
  residual activity: 95.5%
[11]
  residual activity: 104%
[12]
  residual activity: 96.9%
[13]
  residual activity: 93%
[14]
  residual activity: 88.6%
[15]
  residual activity: 104%
[16]
  residual activity: 95.9%
[17]
  residual activity: 91.8%
[18]
  residual activity: 89.6%
[19]
  residual activity: 108%
[20]
  residual activity: 99.2%
[21]
  residual activity: 100%
[22]
  residual activity: 73.6%
[23]
  residual activity: 95.3%
[24]
  residual activity: 96.6%
[25]
  residual activity: 95.4%
[26]
  residual activity: 101%
[27]
  residual activity: 103%
[28]
  residual activity: 87.8%
[29]
  residual activity: 98.3%
[30]
  residual activity: 98.5%
[31]
  residual activity: 88.3%
[32]
  residual activity: 87.5%
[33]
  residual activity: 94.8%
[34]
  residual activity: 106%
[35]
  residual activity: 90.4%
[36]
  residual activity: 108%
[37]
  residual activity: 96.6%
[38]
  residual activity: 102%
[39]
  residual activity: 99.5%
[40]
  residual activity: 114%
[41]
  residual activity: 91.5%
[42]
  residual activity: 94.1%

## CC(C)(C)c1cc(C=C(C#N)C#N)cc(Br)c1O
[1]
  residual activity: 95.6%
[2]
  residual activity: 102%
[3]
  residual activity: 92.1%
[4]
  residual activity: 103%
[5]
  residual activity: 108%
[6]
  residual activity: 90.5%
[7]
  residual activity: 95.4%
[8]
  residual activity: 101%
[9]
  residual activity: 90.9%
[10]
  residual activity: 108%
[11]
  residual activity: 107%
[12]
  residual activity: 94%
[13]
  residual activity: 104%
[14]
  residual activity: 96%
[15]
  residual activity: 98.9%
[16]
  residual activity: 97.6%
[17]
  residual activity: 104%
[18]
  residual activity: 104%
[19]
  residual activity: 129%
[20]
  residual activity: 84.5%
[21]
  residual activity: 94.7%
[22]
  residual activity: 91.3%
[23]
  residual activity: 122%
[24]
  residual activity: 94.6%
[25]
  residual activity: 95.7%
[26]
  residual activity: 91.3%
[27]
  residual activity: 103%
[28]
  residual activity: 92.5%
[29]
  residual activity: 95.2%
[30]
  residual activity: 96.9%
[31]
  residual activity: 97.8%
[32]
  residual activity: 98.4%
[33]
  residual activity: 91.4%
[34]
  residual activity: 99.3%
[35]
  residual activity: 95.8%
[36]
  residual activity: 98%
[37]
  residual activity: 104%
[38]
  residual activity: 98.9%
[39]
  residual activity: 120%
[40]
  residual activity: 102%
[41]
  residual activity: 91.1%
[42]
  residual activity: 88.6%
